This passage reports IC50 results from patent US20110224136A1, “INHIBITORS OF DIACYLGLYCEROL ACYLTRANSFERASE” (priority 2008, published 2011).

Molecules are shown by their SMILES.

In this assay the target is T1, human DGAT1 enzyme (Homo sapiens, UniProt O75907).
T1 construct: made in house; host or cells: Sf9 insect cells (microsomes)
T1 sequence (O75907 1-488): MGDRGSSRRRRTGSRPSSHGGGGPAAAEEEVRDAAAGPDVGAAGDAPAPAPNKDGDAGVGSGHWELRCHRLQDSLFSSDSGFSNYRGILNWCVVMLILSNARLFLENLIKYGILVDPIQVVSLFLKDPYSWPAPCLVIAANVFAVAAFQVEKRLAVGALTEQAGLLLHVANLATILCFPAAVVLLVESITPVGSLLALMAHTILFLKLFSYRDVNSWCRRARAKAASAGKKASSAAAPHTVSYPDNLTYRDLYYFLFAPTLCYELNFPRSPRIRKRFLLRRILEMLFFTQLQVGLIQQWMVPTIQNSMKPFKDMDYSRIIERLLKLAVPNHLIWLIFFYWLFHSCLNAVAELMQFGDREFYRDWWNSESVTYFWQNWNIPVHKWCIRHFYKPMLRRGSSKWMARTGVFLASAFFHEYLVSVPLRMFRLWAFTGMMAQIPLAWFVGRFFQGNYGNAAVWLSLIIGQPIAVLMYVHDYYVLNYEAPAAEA
Nature of the assay: in vitro DGAT1 inhibition assay (microsomes, [14C]-palmitoyl-CoA, scintillation proximity). The format is biochemical. The settings on record: human DGAT1 expressed in Sf9 insect cell microsomes; 2 hours at room temperature; read-out: hDGAT IC50. The procedure: A useful assay to determine the DGAT inhibitory activity of the inventive compounds is described below:
The in vitro assay to identify DGAT1 inhibitors uses human DGAT1 enzyme expressed in Sf9 insect cells prepared as microsomes. The reaction is initiated by the addition of the combined substrates 1,2-dioleoyl-sn-glycerol and [^14C]-palmitoyl-CoA and incubated with test compounds and microsomal membranes for 2 hours at room temperature. The assay is stopped by adding 0.5 mg wheat germ agglutinin beads in assay buffer with 1% Brij-35 and 1% 3-cholamidopropyldimethyl-ammonio-1-propane sulfonate. Plates are sealed with TopSeal and incubated for 18 hours to allow the radioactive triglyceride product to come into proximity with the bead. Plates are read on a TopCount instrument.
Percent inhibition was calculated as the percent of (test compound inhibition minus non-specific binding) relative to (total binding minus non-specific binding). IC50 values were determined by curve fitting the data to a Sigmoidal dose-response in GraphPad Prism utilizing the following equation:
Y=A+(B−A)/(1+10̂((Log IC50−X))),
where A and B are the bottom and top of the curve (highest and lowest inhibition), respectively, and X is the logarithm of concentration.
For orientation: In a scintillation proximity assay essentially only radioactivity close to the scintillant gives light.
With `O=C(Nc1ccc(N2CCN(C(=O)Nc3ccccc3F)CC2)nc1)c1oc(N2CCC(c3cccc(F)c3)C2)nc1C(F)(F)F` (centres unmarked) [Compound 279, 2-(3-(3-fluorophenyl)pyrrolidin-1-yl)-N-(6-(4-(2-fluorophenylcarbamoyl)piperazin-1-yl)pyridin-3-yl)-4-(trifluoromethyl)oxazole-5-carboxamide], the IC50 (commonly the point on the concentration scale where inhibition reaches its midpoint) fell in the range of 11 to 100 nM.
Next, `CC1CCCN(c2nc(C(F)(F)F)c(C(=O)Nc3ccc(N[C@H]4CCN(C(=O)c5ccccc5F)C4)nc3)o2)C1` (stereo partly drawn) [Compound 260, N-(6-((S)-1-(2-fluorobenzoyl)pyrrolidin-3-ylamino)pyridin-3-yl)-2-(3-methylpiperidin-1-yl)-4-(trifluoromethyl)oxazole-5-carboxamide]: 101 to 500 nM; `Cc1ccccc1NC(=O)c1ccc(-c2ccc(NC(=O)c3sc(CN(C)c4ccccc4)nc3C(F)(F)F)nc2)cc1` [Compound 250, 2-((methyl(phenyl)amino)methyl)-N-(5-(4-(o-tolylcarbamoyl)phenyl)pyridin-2-yl)-4-(trifluoromethyl)thiazole-5-carboxamide]: 101 to 500 nM; `CC1CCCN(c2nc(C(F)(F)F)c(C(=O)Nc3ccc(N4CCN(C(=O)Nc5ccccc5C(=O)O)CC4)nc3)o2)C1` (centres unmarked) [Compound 300, 2-(4-(5-(2-(3-methylpiperidin-1-yl)-4-(trifluoromethyl)oxazole-5-carboxamido)pyridin-2-yl)piperazine-1-carboxamido)benzoic acid]: 11 to 100 nM.
Take `CC1CCCN(c2nc(C(F)(F)F)c(C(=O)Nc3ccc(-c4ccc(C(=O)NCCC(=O)O)cc4)cc3)o2)C1` (centres unmarked) [Compound 328, 3-(4′-(2-(3-methylpiperidin-1-yl)-4-(trifluoromethyl)oxazole-5-carboxamido)biphenyl-4-ylcarboxamido)propanoic acid]: the IC50 lay in the range of 101 to 500 nM.
Regarding `CC1CCCN(c2nc(C(F)(F)F)c(C(=O)Nc3ccc(-c4ccc(C(=O)O)nc4)cc3)o2)C1` (centres unmarked) [Compound 229, 5-(4-(2-(3-methylpiperidin-1-yl)-4-(trifluoromethyl)oxazole-5-carboxamido)phenyl)picolinic acid], the IC50 was 101 to 500 nM.
Next, `Cc1ccccc1NC(=O)c1ccc(-c2ccc(NC(=O)c3oc(N4CCCC(C)C4)nc3C(F)(F)F)cc2)cn1` (centres unmarked) [Compound 232, 2-(3-methylpiperidin-1-yl)-N-(4-(6-(o-tolylcarbamoyl)pyridin-3-yl)phenyl)-4-(trifluoromethyl)oxazole-5-carboxamide]: 11 to 100 nM; `CC1CCCN(c2nc(C(F)(F)F)c(C(=O)Nc3ccc(-c4ccc(C(=O)N5CCC(C(=O)O)CC5)cn4)cc3)o2)C1` (centres unmarked) [Compound 251, 1-(6-(4-(2-(3-methylpiperidin-1-yl)-4-(trifluoromethyl)oxazole-5-carboxamido)phenyl)nicotinoyl)piperidine-4-carboxylic acid]: 101 to 500 nM; `O=C(Nc1ccc(N2CCN(C(=O)Nc3ccccc3F)CC2)nc1)c1oc(N2CCC(O)(c3ccccc3)CC2)nc1C(F)(F)F` [Compound 324, N-(6-(4-(2-fluorophenylcarbamoyl)piperazin-1-yl)pyridin-3-yl)-2-(4-hydroxy-4-phenylpiperidin-1-yl)-4-(trifluoromethyl)oxazole-5-carboxamide]: 101 to 500 nM.
On to `O=C(Nc1ccc(N2CCN(C(=O)Nc3ccccc3F)CC2)nc1)c1oc(N2CCN(c3ccccc3F)CC2)nc1C(F)(F)F` [Compound 336, 2-(4-(2-fluorophenyl)piperazin-1-yl)-N-(6-(4-(2-fluorophenylcarbamoyl)-piperazin-1-yl)pyridin-3-yl)-4-(trifluoromethyl)oxazole-5-carboxamide], for which the IC50 was 101 to 500 nM.
On to `CN(CC1(c2ccccc2)CC1)c1nc(C(F)(F)F)c(C(=O)Nc2ccc(N3CCN(C(=O)Nc4ccccc4F)CC3)nc2)o1` [Compound 317, N-(6-(4-(2-fluorophenylcarbamoyl)piperazin-1-yl)pyridin-3-yl)-2-(methyl((1-phenylcyclopropyl)methyl)amino)-4-(trifluoromethyl)oxazole-5-carboxamide], for which the concentration for half-maximal inhibition (IC50) was in the range of 11 to 100 nM.
To `O=C(Nc1ccc(N2CCN(C(=O)Nc3ccccc3F)CC2)nc1)c1sc(CSc2ccccc2)nc1C(F)(F)F` [Compound 253, N-(6-(4-(2-fluorophenylcarbamoyl)piperazin-1-yl)pyridin-3-yl)-2-(phenylthiomethyl)-4-(trifluoromethyl)thiazole-5-carboxamide] belongs 11 to 100 nM; to `C[C@@H]1CN(c2ccc(NC(=O)c3oc(N4CCC(c5ccccc5)CC4)nc3C(F)(F)F)cn2)CCN1C(=O)Nc1ccccc1F` [Compound 266], 11 to 100 nM; to `O=C(O)c1ccccc1NC(=O)N1CCN(c2ccc(NC(=O)c3oc(N4CCC(c5ccccc5)CC4)nc3C(F)(F)F)cn2)CC1` [Compound 292, 2-(4-(5-(2-(4-phenylpiperidin-1-yl)-4-(trifluoromethyl)oxazole-5-carboxamido)pyridin-2-yl)piperazine-1-carboxamido)benzoic acid], 11 to 100 nM.
With `O=C(Nc1ccc(N[C@H]2CCN(C(=O)Nc3ccccc3F)C2)nc1)c1sc(N2CCC(c3ccccc3)CC2)nc1C(F)(F)F` [Compound 259, (S)—N-(6-(1-(2-fluorophenylcarbamoyl)pyrrolidin-3-ylamino)pyridin-3-yl)-2-(4-phenylpiperidin-1-yl)-4-(trifluoromethyl)thiazole-5-carboxamide], the IC50 lay in the range of 101 to 500 nM.
To `CC1CCCN(c2nc(C(F)(F)F)c(C(=O)Nc3ccc(N4CCN(C(=O)Nc5ccccc5F)C[C@@H]4C)nc3)o2)C1` (stereo partly drawn) [Compound 315, N-(6-((S)-4-(2-fluorophenylcarbamoyl)-2-methylpiperazin-1-yl)pyridin-3-yl)-2-(3-methylpiperidin-1-yl)-4-(trifluoromethyl)oxazole-5-carboxamide] belongs 101 to 500 nM; to `O=C(Nc1ccc(N2CCN(C(=O)Nc3ccccc3F)CC2)nc1)c1oc(N2CC[C@H](c3ccccc3)C2)nc1C(F)(F)F` [Compound 270, (R)—N-(6-(4-(2-fluorophenylcarbamoyl)piperazin-1-yl)pyridin-3-yl)-2-(3-phenylpyrrolidin-1-yl)-4-(trifluoromethyl)oxazole-5-carboxamide], 11 to 100 nM.
